Legend:
[1] = tested on: CCRF-CEM; format: cell-based; details: Homo sapiens, one dose 10^-5 M, 48 h
[2] = tested on: HL-60(TB); format: cell-based; details: Homo sapiens, one dose 10^-5 M, 48 h
[3] = tested on: K-562; format: cell-based; details: Homo sapiens, K562, one dose 10^-5 M, 48 h
[4] = tested on: MOLT-4; format: cell-based; details: Homo sapiens, one dose 10^-5 M, 48 h, read-out: % growth
[5] = tested on: RPMI-8226; format: cell-based; details: Homo sapiens, one dose 10^-5 M, 48 h
[6] = tested on: SR; format: cell-based; details: Homo sapiens, one dose 10^-5 M, 48 h
[7] = tested on: A549/ATCC; format: cell-based; details: Homo sapiens, one dose 10^-5 M, 48 h
[8] = tested on: EKVX; format: cell-based; details: Homo sapiens, one dose 10^-5 M, 48 h
[9] = tested on: HOP-62; format: cell-based; details: Homo sapiens, one dose 10^-5 M, 48 h
[10] = tested on: HOP-92; format: cell-based; details: Homo sapiens, one dose 10^-5 M, 48 h
[11] = tested on: NCI-H226; format: cell-based; details: Homo sapiens, one dose 10^-5 M, 48 h
[12] = tested on: NCI-H23; format: cell-based; details: Homo sapiens, one dose 10^-5 M, 48 h, read-out: % growth
[13] = tested on: NCI-H460; format: cell-based; details: Homo sapiens, one dose 10^-5 M, 48 h, read-out: % growth
[14] = tested on: NCI-H522; format: cell-based; details: Homo sapiens, one dose 10^-5 M, 48 h
[15] = tested on: HCC-2998; format: cell-based; details: Homo sapiens, one dose 10^-5 M, 48 h
[16] = tested on: HCT-116; format: cell-based; details: Homo sapiens, one dose 10^-5 M, 48 h, read-out: % growth
[17] = tested on: HCT-15; format: cell-based; details: Homo sapiens, one dose 10^-5 M, 48 h, read-out: % growth
[18] = tested on: HT29; format: cell-based; details: Homo sapiens, HT-29, one dose 10^-5 M, 48 h
[19] = tested on: KM12; format: cell-based; details: Homo sapiens, one dose 10^-5 M, 48 h
[20] = tested on: SW-620; format: cell-based; details: Homo sapiens, one dose 10^-5 M, 48 h
[21] = tested on: SF-268; format: cell-based; details: Homo sapiens, one dose 10^-5 M, 48 h, read-out: % growth
[22] = tested on: SF-295; format: cell-based; details: Homo sapiens, one dose 10^-5 M, 48 h
[23] = tested on: SF-539; format: cell-based; details: Homo sapiens, one dose 10^-5 M, 48 h
[24] = tested on: SNB-19; format: cell-based; details: Homo sapiens, one dose 10^-5 M, 48 h, read-out: % growth
[25] = tested on: SNB-75; format: cell-based; details: Homo sapiens, one dose 10^-5 M, 48 h
[26] = tested on: U251; format: cell-based; details: Homo sapiens, U-251, one dose 10^-5 M, 48 h
[27] = tested on: LOX IMVI; format: cell-based; details: Homo sapiens, one dose 10^-5 M, 48 h, read-out: % growth
[28] = tested on: MALME-3M; format: cell-based; details: Homo sapiens, one dose 10^-5 M, 48 h
[29] = tested on: M14; format: cell-based; details: Homo sapiens, one dose 10^-5 M, 48 h
[30] = tested on: MDA-MB-435; format: cell-based; details: Homo sapiens, one dose 10^-5 M, 48 h, read-out: % growth
[31] = tested on: SK-MEL-2; format: cell-based; details: Homo sapiens, one dose 10^-5 M, 48 h
[32] = tested on: SK-MEL-28; format: cell-based; details: Homo sapiens, one dose 10^-5 M, 48 h
[33] = tested on: SK-MEL-5; format: cell-based; details: Homo sapiens, one dose 10^-5 M, 48 h, read-out: % growth
[34] = tested on: UACC-257; format: cell-based; details: Homo sapiens, one dose 10^-5 M, 48 h
[35] = tested on: UACC-62; format: cell-based; details: Homo sapiens, one dose 10^-5 M, 48 h
[36] = tested on: IGROV1; format: cell-based; details: Homo sapiens, IGROV-1, one dose 10^-5 M, 48 h, read-out: % growth
[37] = tested on: OVCAR-3; format: cell-based; details: Homo sapiens, one dose 10^-5 M, 48 h
[38] = tested on: OVCAR-4; format: cell-based; details: Homo sapiens, one dose 10^-5 M, 48 h
[39] = tested on: OVCAR-5; format: cell-based; details: Homo sapiens, one dose 10^-5 M, 48 h
[40] = tested on: OVCAR-8; format: cell-based; details: Homo sapiens, one dose 10^-5 M, 48 h
[41] = tested on: SK-OV-3; format: cell-based; details: Homo sapiens, one dose 10^-5 M, 48 h
[42] = tested on: 786-0; format: cell-based; details: Homo sapiens, one dose 10^-5 M, 48 h
[43] = tested on: A498; format: cell-based; details: Homo sapiens, one dose 10^-5 M, 48 h
[44] = tested on: ACHN; format: cell-based; details: Homo sapiens, one dose 10^-5 M, 48 h
[45] = tested on: CAKI-1; format: cell-based; details: Homo sapiens, CAKI-1, 48 h, one dose 10^-5 M, 48 h
[46] = tested on: RXF 393; format: cell-based; details: Homo sapiens, RXF 393, 48 h, one dose 10^-5 M, 48 h, read-out: % growth
[47] = tested on: SN12C; format: cell-based, human; details: Homo sapiens, one dose 10^-5 M, 48 h
[48] = tested on: TK-10; format: cell-based; details: Homo sapiens, one dose 10^-5 M, 48 h
[49] = tested on: UO-31; format: cell-based; details: Homo sapiens, UO-31, 48 h, one dose 10^-5 M, 48 h
[50] = tested on: PC-3; format: cell-based; details: Homo sapiens, one dose 10^-5 M, 48 h
[51] = tested on: DU-145; format: cell-based; details: Homo sapiens, one dose 10^-5 M, 48 h
[52] = tested on: MCF7; format: cell-based; details: Homo sapiens, one dose 10^-5 M, 48 h, read-out: % growth
[53] = tested on: MDA-MB-231/ATCC; format: cell-based; details: Homo sapiens, one dose 10^-5 M, 48 h
[54] = tested on: HS 578T; format: cell-based; details: Homo sapiens; one dose 10^-5 M, 48 h; HS 578T; read-out: % growth
[55] = tested on: T-47D; format: cell-based; details: Homo sapiens, T47D, one dose 10^-5 M, 48 h, read-out: % growth
[56] = tested on: MDA-MB-468; format: cell-based; details: Homo sapiens, one dose 10^-5 M, 48 h
[57] = tested on: full NCI 60 cell lines panel
Method: 60 different human tumour cell lines-representing leukaemia, melanoma, and malignancies of the lung, colon, brain, ovary, breast, prostate, and kidney are used in the operation of this screen.
Compounds were dissolved in DMSO: glycerol (91) and were kept in a freezer at −70° C. The synthesised compounds were introduced to the culture at a single concentration of 1 0 ^−5 M and left to incubate for 48 h. A protein-binding dye called sulforhodamine B was used to measure end points (SRB).
A mean graph showing the % growth of treated cells is used to represent the one-dose data. The value provided for the One-dose assay represents growth in comparison to the no-drug control and to the number of cells at time zero. This enables the identification of lethality (values between 0 and 100) as well as growth inhibition (values less than 0). A value of 100, for instance, indicates no growth inhibition. A value of 40 would indicate 60% growth inhibition. A value of 0 indicates no net growth over the course of the experiment. A value of −40 would indicate 40% lethality.
Furthermore, the average sensitivity of all cell lines to the compound is termed as the full panel mean graph midpoints (MG-MID). The complete panel mean graph midpoints refers to the average sensitivity of all cell lines to the chemical (MG-MID). A measure of a compound’s selectivity for a given cell line is the ratio created by dividing the full panel mean graph midpoints (MG-MID) concentration by the individual subpanel MG-MID concentrations (obtained as the average sensitivity of all the cell lines in a given subpanel to the test compound).

N=C(NN=Cc1ccc([N+](=O)[O-])cc1)c1c(N)nc(S)nc1-c1ccc(Cl)cc1 [Compound 4i, 4-amino-6–(4-chlorophenyl)-2-mercapto-N'-[(4-nitrophenyl)methylene] pyrimidine-5-carboximidohydrazide]
% cell growth at 10 µM [1]: 88.6%
% growth at 10 µM [2]: 97.3%
% growth at 10 µM [3]: 96.3%
activity at 10 µM [4]: 105%
% growth at 10 µM [5]: 89%
percent cell growth at 10 µM [6]: 96.5%
% growth at 10 µM [7]: 103%
% cell growth at 10 µM [8]: 95.8%
% growth at 10 µM [9]: 95%
% growth at 10 µM [10]: 97%
% growth at 10 µM [11]: 150%
activity at 10 µM [12]: 106%
activity at 10 µM [13]: 104%
% growth at 10 µM [14]: 92.9%
% growth at 10 µM [15]: 104%
activity at 10 µM [16]: 108%
activity at 10 µM [17]: 95.2%
% growth at 10 µM [18]: 101%
% growth at 10 µM [19]: 99.2%
% growth at 10 µM [20]: 102%
activity at 10 µM [21]: 117%
% cell growth at 10 µM [22]: 96.7%
% growth at 10 µM [23]: 96.7%
activity at 10 µM [24]: 94.2%
% growth at 10 µM [25]: 115%
% growth at 10 µM [26]: 98.8%
activity at 10 µM [27]: 106%
% growth at 10 µM [28]: 96.9%
% growth at 10 µM [29]: 107%
activity at 10 µM [30]: 101%
% growth at 10 µM [31]: 108%
% cell growth at 10 µM [32]: 101%
activity at 10 µM [33]: 101%
percent cell growth at 10 µM [34]: 96.5%
% growth at 10 µM [35]: 94.6%
activity at 10 µM [36]: 99.4%
% growth at 10 µM [37]: 119%
% growth at 10 µM [38]: 98.6%
percent cell growth at 10 µM [39]: 101%
% growth of cells at 10 µM [40]: 105%
% growth at 10 µM [41]: 103%
% growth at 10 µM [42]: 103%
% growth at 10 µM [43]: 114%
% growth at 10 µM [44]: 92.1%
% growth at 10 µM [45]: 89.6%
activity at 10 µM [46]: 108%
% growth at 10 µM [47]: 92.6%
% cell growth at 10 µM [48]: 112%
% cell growth at 10 µM [49]: 91%
percent cell growth at 10 µM [50]: 90.1%
% growth at 10 µM [51]: 108%
activity at 10 µM [52]: 90.7%
% growth at 10 µM [53]: 96%
activity at 10 µM [54]: 118%
activity at 10 µM [55]: 90.5%
percent cell growth at 10 µM [56]: 114%
activity at 10 µM ([57]; Homo sapiens, 60 cell, 48 h, read-out: Mean % growth): 101%
activity on all 60 cancer cell lines tested (in words) ([57]; one dose): weak activity

— article PMC10866072, “Design, synthesis, molecular modelling and biological evaluation of novel 6-amino-5-cyano-2-thiopyrimidine derivatives as potent anticancer agents against leukemia and apoptotic inducers” (Journal of Enzyme Inhibition and Medicinal Chemistry, 2024)
